Source: patent US9796672B2, “Isoindoline compositions and methods for treating neurodegenerative disease” (Cognition Therapeutics, Inc., priority 2014, dated 2017)

How the values were obtained:
[1] = Mouse liver microsome (MLM) stability; format: in vitro ADME; conditions: mouse, microsomes
Experimental: A first pharmacokinetic study was performed in microsomes of mice mouse liver microsomes, MLM) by a commercial contract research organization. The studies were performed according to Obach, R. S et al. (1997) J. Pharmacol. Exp. Ther., 283: 46-58, which is incorporated herein by reference.

Sigma-1 receptor = Sigma-1 receptor competitive radioligand binding assay; conditions: read-out: Sigma-1 Receptor Affinity, Ki
Experimental: Radioligand binding assays for Sigma-1 receptors and Sigma-2 receptors were carried out by a commercial contract research organization. For Sigma-1 binding, various concentrations of test compounds from 100 μM to 1 nM were used to displace 8 nM [^3H](+)pentazocine from endogenous receptors on Jurkat cell membranes (Ganapathy M E et al. 1991, J Pharmacol. Exp. Ther. 289:251-260). 10 μM Haloperidol was used to define non-specific binding. […] 10 μM Haloperidol was used to define non-specific binding. Reactions were terminated by rapid filtration through Whatman GF/C filters using a Brandel 12R cell harvester followed by two washes with ice-cold buffer. Radioactivity on the dried filter discs was measured using a liquid scintillation analyzer (Tri-Carb 2900TR; PerkinElmer Life and Analytical Sciences). The displacement curves were plotted and the Ki values of the test ligands for the receptor subtypes were determined using GraphPad Prism (GraphPad Software Inc., San Diego, Calif.). The percentage specific binding was determined by dividing the difference between total bound (disintegrations per minute) and nonspecific bound (disintegrations per minute) by the total bound (disintegrations per minute).

Sigma-2 receptor = Sigma-2 receptor competitive radioligand binding assay; set-up: species or system rat; conditions: read-out: Sigma-2 Receptor Affinity, Ki
[2] = tested on: Abeta oligomer-induced membrane trafficking deficits in primary hippocampal neurons; experiment: Membrane trafficking/exocytosis (MTT) assay; conditions: read-out: Membrane Trafficking EC50; compound dosed prior to Abeta oligomer addition
neuronal cultures = experiment: Functional neuronal phenotype in neuronal cultures; format: cell-based; set-up: key: Antagonist: antagonists (block Abeta signaling); Agonist: agonists (block Abeta signaling with U-shaped dose-response curve and toxicity at high doses); Inactive: inactive (no effect in neuronal cultures)
Experimental: Neuronal cultures are treated with various concentrations of sigma compounds for 24 hours and nuclear intensity compared to vehicle is measured.

potassium channel hERG = potassium channel hERG (Homo sapiens (Human), UniProt Q12809); experiment: In vitro toxicity, hERG inhibition; format: biochemical
Sequence of potassium channel hERG (Q12809 whole entry): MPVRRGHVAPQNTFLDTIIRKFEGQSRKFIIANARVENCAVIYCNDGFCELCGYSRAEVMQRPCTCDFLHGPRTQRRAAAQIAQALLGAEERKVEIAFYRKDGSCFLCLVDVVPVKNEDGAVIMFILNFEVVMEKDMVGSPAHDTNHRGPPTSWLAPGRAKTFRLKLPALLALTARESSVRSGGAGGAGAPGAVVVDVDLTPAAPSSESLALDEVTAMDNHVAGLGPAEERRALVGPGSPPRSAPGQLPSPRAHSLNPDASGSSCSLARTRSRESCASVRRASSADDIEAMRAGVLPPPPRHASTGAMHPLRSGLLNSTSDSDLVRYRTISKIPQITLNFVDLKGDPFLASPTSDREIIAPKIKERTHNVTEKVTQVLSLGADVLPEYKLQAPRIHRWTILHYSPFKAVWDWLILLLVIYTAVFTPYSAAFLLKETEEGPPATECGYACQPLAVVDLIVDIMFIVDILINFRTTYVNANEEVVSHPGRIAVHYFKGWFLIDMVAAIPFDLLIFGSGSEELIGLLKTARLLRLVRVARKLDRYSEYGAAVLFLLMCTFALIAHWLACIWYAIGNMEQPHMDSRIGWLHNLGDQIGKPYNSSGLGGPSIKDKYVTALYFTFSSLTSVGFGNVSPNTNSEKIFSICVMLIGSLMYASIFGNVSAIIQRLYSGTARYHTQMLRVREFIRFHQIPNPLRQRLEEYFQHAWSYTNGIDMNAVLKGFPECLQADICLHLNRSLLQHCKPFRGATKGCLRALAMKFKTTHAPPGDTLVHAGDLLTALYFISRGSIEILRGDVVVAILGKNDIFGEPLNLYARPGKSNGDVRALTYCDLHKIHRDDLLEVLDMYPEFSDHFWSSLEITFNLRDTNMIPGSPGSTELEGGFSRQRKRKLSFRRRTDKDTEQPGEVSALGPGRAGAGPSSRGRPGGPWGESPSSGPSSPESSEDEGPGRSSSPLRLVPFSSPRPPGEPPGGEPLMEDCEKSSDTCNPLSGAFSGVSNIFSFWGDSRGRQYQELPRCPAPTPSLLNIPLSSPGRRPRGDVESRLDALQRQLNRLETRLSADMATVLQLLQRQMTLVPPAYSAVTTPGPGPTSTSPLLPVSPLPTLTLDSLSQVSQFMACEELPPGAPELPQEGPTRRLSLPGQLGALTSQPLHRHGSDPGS
Experimental: In vitro toxicity for Test Compounds is tested in a number of standard assays.

Mouse liver microsomes, MLM t½ [1] [min] | Ki (Sigma-1 receptor) [nM] | Ki (Sigma-2 receptor) [nM] | SMILES | EC50 [2] [nM] | neuronal phenotype (neuronal cultures) | IC50 (potassium channel hERG) [nM]
12 | 74 | 18 | CC(C)(CCc1ccc(O)c(OC(F)(F)F)c1)N1Cc2cccc(F)c2C1 [compound 54] | 6500 | Antagonist | 2500
336 | 10000 | 10000 | COc1cc(CCC(C)(C)N2Cc3cccc(C(=O)N4CCN(C(C)=O)CC4)c3C2)ccc1O [compound 83] | 100000 | Inactive | 10000
7 | 330 | 12 | C[C@H](CCc1ccc(F)cc1)N1Cc2cccc(F)c2C1 [compound 21] | > 20000 | Inactive | 15000
5 | 410 | 1600 | C[C@H](CCc1ccc(O)c(OC(C)(C)C)c1)N1Cc2c(F)ccc(F)c2C1 [60A] | > 20000 | Antagonist | 100000
8 | 1.4 | 5 | C[C@H](CCc1ccc(Cl)c(Cl)c1)N1Cc2cc3c(cc2C1)OCO3 [compound 10] | 500 | Antagonist | 41000
7 | 44 | 23 | C[C@H](CCc1ccc(F)cc1)N1Cc2ccc(F)cc2C1 [compound 22] | < 250 | Antagonist | 350
6 | 3.7 | 58 | C[C@H](CCc1ccc(O)c(OC(F)(F)F)c1)N1Cc2ccc(F)cc2C1 [compound 31] | < 250 | Antagonist | 1900
163 | 10000 | 10000 | COCCNC(=O)c1cccc2c1CN(C(C)(C)CCc1ccc(O)c(OC)c1)C2 [compound 84] | 100000 | – | 6600
450 | 10000 | 10000 | COc1cc(CCC(C)(C)N2Cc3cccc(C(=O)NCCN(C)C)c3C2)ccc1O [compound 78] | 8800 | Neuroactive | 110000
5 | 4.9 | 52 | C[C@H](CCc1ccc(O)c(OC(F)(F)F)c1)N1Cc2cc3c(cc2C1)OCO3 [compound 24] | 500 | Antagonist | 860
14 | 100 | 6.2 | CC(C)Oc1ccc(CCC(C)(C)N2Cc3ccc(F)cc3C2)cc1OC(C)C [compound 42] | > 20000 | Agonist | 800
45 | 63 | 8.5 | CC(C)(C)Oc1cc(CCC(C)(C)N2Cc3ccc(S(C)(=O)=O)cc3C2)ccc1O [compound 62] | 60 | Antagonist | 26000
21 | 2300 | 550 | CC(C)(C)Oc1cc(CCC(C)(C)N2Cc3c(F)ccc(F)c3C2)ccc1O [compound 74] | 300 | Antagonist | 100000
25 | 69 | 1.8 | C[C@H](CCc1ccc(Cl)c(Cl)c1)N1Cc2ccc3ccccc3c2C1 [compound 19] | 270 | Weak | 98000
4 | 120 | 11 | CC(C)Oc1cc(CCC(C)(C)N2Cc3cccc(F)c3C2)ccc1O [compound 28] | 70 to 80 | Antagonist | 9600
4 | 7.9 | 41 | CC(C)Oc1cc(CC[C@@H](C)N2Cc3cccc(F)c3C2)ccc1O [compound 26] | > 20000 | Inactive | 3700
144 | 10000 | 460 | COc1cc(CCC(C)(C)N2Cc3cccc(C(=O)NCCO)c3C2)ccc1O [compound 79] | 100000 | Inactive | 11000

Mouse liver microsomes, MLM t½ [1] [min] | Ki (Sigma-1 receptor) [nM] | Ki (Sigma-2 receptor) [nM] | SMILES | EC50 [2] [nM] | neuronal phenotype (neuronal cultures) | IC50 (potassium channel hERG) [nM]
617 | 10000 | 10000 | CC(C)(CCc1ccc(O)c(OC(F)(F)F)c1)N1Cc2cccc(C(=O)O)c2C1 [compound 56] | 300 | Weak and Antagonist | 49000
21 | 110 | 17 | COc1cc(CCC(C)(C)N2Cc3cccc(F)c3C2)ccc1O [compound 53] | > 20000 | Inactive | 2800
4 | 5.7 | 110 | CC(C)Oc1cc(CC[C@@H](C)N2Cc3cc4c(cc3C2)OCO4)ccc1O [compound 25] | > 20000 | Inactive/ | 3200
97 | 130 | 540 | COc1cc(CC[C@@H](C)N2Cc3cc4c(cc3C2)OCO4)ccc1OCCO [compound 52] | 300 | Antagonist | 3200
5 | 16 | 13 | C[C@H](CCc1ccc(F)cc1)N1Cc2cc3c(cc2C1)OCO3 [compound 23] | < 250 | Antagonist | 370
47 | 4.1 | 5.2 | CC(C)(CCc1ccc(F)cc1)N1Cc2cc3c(cc2C1)OCO3 [compound 36] | 860 | Antagonist | 19
6 | 47 | 13 | CC(C)Oc1cc(CCC(C)(C)N2Cc3cc4c(cc3C2)OCO4)ccc1O [compound 29] | > 20000 | Inactive/ | 540
582 | 3600 | 22 | COc1cc2c(cc1OC)CN(C(C)(C)CCc1ccc(OCCO)c(OC)c1)C2 [compound 48] | > 20000 | Inactive | 1700
43 | 0.57 | 0.67 | COc1cc2c(cc1OC)CN([C@@H](C)CCc1ccc(Cl)c(Cl)c1)C2 [compound 20] | 67 to 600 | – | 660
8 | 10000 | 57 | CN(C)C(=O)c1cccc2c1CN(C(C)(C)CCc1ccc(O)c(OC(C)(C)C)c1)C2 [compound 59] | – | Inactive | 18000
114 | 33 | 6.9 | CC(C)(CCc1ccc(O)c(OC(F)(F)F)c1)N1Cc2ccc(S(C)(=O)=O)cc2C1 [compound 61] | < 20 | Antagonist | 790
66 | 77 | 800 | COc1cc(CC[C@@H](C)N2Cc3cccc(F)c3C2)ccc1OCCO [compound 51] | – | Neuroactive | 1200
28 | 96 | 1.3 | CC(C)COc1cc(CCC(C)(C)N2Cc3cccc(F)c3C2)ccc1O [compound 88] | 360 | Neuroactive | 2800
75 | 27 | 76 | CC(C)Oc1cc(CC[C@@H](C)N2Cc3ccc(S(C)(=O)=O)cc3C2)ccc1O [compound 69] | – | Inactive | 9500
41 | 1300 | 190 | COc1cc(CC[C@@H](C)N2Cc3cccc(S(C)(=O)=O)c3C2)ccc1O [compound 65] | – | Neuroactive | 26000
39 | 55 | 8.1 | CC(C)(CCc1ccc(O)c(OC(F)(F)F)c1)N1Cc2cccc(S(C)(=O)=O)c2C1 [compound 67] | – | Antagonist | 44000

SMILES | Mouse liver microsomes, MLM t½ [1] [min] | Ki (Sigma-1 receptor) [nM] | Ki (Sigma-2 receptor) [nM] | EC50 [2] [nM] | neuronal phenotype (neuronal cultures) | IC50 (potassium channel hERG) [nM]
C[C@H](CCc1ccc(Cl)c(Cl)c1)N1Cc2cccc(F)c2C1 [compound 9] | 12 | 17 | 3.6 | 220 | Antagonist | 6700
COc1cc2c(cc1OC)CN([C@H](C)CCc1ccc(Cl)c(Cl)c1)C2 [compound 11] | 61 | 14 | 0.44 | 700 | Antagonist | 290
COc1cc(CCC(C)(C)N2Cc3ccc(F)cc3C2)ccc1OC(=O)N(C)C [compound 50] | 33 | 750 | 37 | – | weak and antagonist | 4400
